Measurements: PubChem BioAssay AID1259407 (Chemical Carcinogenesis Research Information System (CCRIS), 2018)
Calls of active or inactive are those of the source. No rule for the calls is given here.

System: CCRIS mutagenicity, Ames/micronucleus/aberration tests
Assay: CCRIS mutagenicity studies
[1] = Test System: MOUSE LYMPHOMA, Strain/Indicator: L5178Y (TK+/TK-), Metabolic Activation: NONE, Method: SUSPENSION/PLATE
[2] = Test System: AMES SALMONELLA TYPHIMURIUM, Strain/Indicator: TA98, Metabolic Activation: NONE, Method: PREINCUBATION
[3] = Test System: AMES SALMONELLA TYPHIMURIUM, Strain/Indicator: TA98, Metabolic Activation: RAT, LIVER, S-9, AROCLOR 1254, Method: PREINCUBATION
[4] = Test System: AMES SALMONELLA TYPHIMURIUM, Strain/Indicator: TA100, Metabolic Activation: NONE, Method: PREINCUBATION
[5] = Test System: AMES SALMONELLA TYPHIMURIUM, Strain/Indicator: TA100, Metabolic Activation: NONE, Method: STANDARD PLATE
[6] = Test System: AMES SALMONELLA TYPHIMURIUM, Strain/Indicator: TA100, Metabolic Activation: RAT, LIVER, S-9, AROCLOR 1254, Method: PREINCUBATION
[7] = Test System: AMES SALMONELLA TYPHIMURIUM, Strain/Indicator: TA100, Metabolic Activation: RAT, LIVER, S-9, AROCLOR 1254, Method: STANDARD PLATE

With CC(Br)(CCl)CBr (stereo unspecified) the mutagenic call (Test System: AMES SALMONELLA TYPHIMURIUM, Strain/Indicator: TA98, Metabolic Activation: NONE, Method: FLASK ASSAY) was “inactive; negative”, the mutagenic call (Test System: AMES SALMONELLA TYPHIMURIUM, Strain/Indicator: TA98, Metabolic Activation: RAT, LIVER, S-9, AROCLOR 1254, Method: FLASK ASSAY) was “inactive; negative” and the mutagenic call (Test System: AMES SALMONELLA TYPHIMURIUM, Strain/Indicator: TA100, Metabolic Activation: NONE, Method: FLASK ASSAY) was “inactive; negative”. The mutagenic call (Test System: AMES SALMONELLA TYPHIMURIUM, Strain/Indicator: TA100, Metabolic Activation: RAT, LIVER, MICROSOMES, PHENOBARBITAL, Method: PREINCUBATION) was “inactive; negative”, the mutagenic call (Test System: AMES SALMONELLA TYPHIMURIUM, Strain/Indicator: TA100, Metabolic Activation: RAT, LIVER, MICROSOMES, Method: PREINCUBATION) was “inactive; negative” and the mutagenic call (Test System: AMES SALMONELLA TYPHIMURIUM, Strain/Indicator: TA100, Metabolic Activation: RAT, LIVER, S-9, AROCLOR 1254, Method: FLASK ASSAY) was “inactive; negative”. For the same compound, the mutagenic call (Test System: AMES SALMONELLA TYPHIMURIUM, Strain/Indicator: TA1535, Metabolic Activation: NONE, Method: FLASK ASSAY) was “inactive; negative”, the mutagenic call (Test System: AMES SALMONELLA TYPHIMURIUM, Strain/Indicator: TA1535, Metabolic Activation: RAT, LIVER, S-9, AROCLOR 1254, Method: FLASK ASSAY) was “inactive; negative” and the mutagenic call (Test System: AMES SALMONELLA TYPHIMURIUM, Strain/Indicator: TA1537, Metabolic Activation: NONE, Method: FLASK ASSAY) was “inactive; negative”. The mutagenic call (Test System: AMES SALMONELLA TYPHIMURIUM, Strain/Indicator: TA1537, Metabolic Activation: RAT, LIVER, S-9, AROCLOR 1254, Method: FLASK ASSAY) was “inactive; negative”, the mutagenic call (Test System: AMES SALMONELLA TYPHIMURIUM, Strain/Indicator: TA1538, Metabolic Activation: NONE, Method: FLASK ASSAY) was “inactive; negative” and the mutagenic call (Test System: AMES SALMONELLA TYPHIMURIUM, Strain/Indicator: TA1538, Metabolic Activation: RAT, LIVER, S-9, AROCLOR 1254, Method: FLASK ASSAY) was “inactive; negative”. For the same compound, the mutagenic call [1] was “active; positive” and the mutagenic call (Test System: MOUSE LYMPHOMA, Strain/Indicator: L5178Y (TK+/TK-), Metabolic Activation: RAT, LIVER, S-9, AROCLOR 1254, Method: SUSPENSION/PLATE) was “inactive; negative”.

For CC(/C=C(/C#N)c1ccc(Br)cc1)C(c1ccccc1)C(C#N)c1ccc(Br)cc1 (stereo unspecified), the mutagenic call (Test System: AMES SALMONELLA TYPHIMURIUM, Strain/Indicator: TA97A, Metabolic Activation: NONE, Method: STANDARD PLATE) was “inactive; negative”.

For COc1cccc2c1C(=O)c1c(O)c3c(c(O)c1C2=O)CC(O)(C(C)=O)CC3O[C@H]1C[C@H](N2CCOCC2)[C@@H](O)C(C)O1 (stereo partly specified), the mutagenic call (Test System: CHINESE HAMSTER V-79, Strain/Indicator: V-79/8-AZAGUANINE, Metabolic Activation: NONE) was “active; positive”, the mutagenic call (Test System: CHINESE HAMSTER V-79, Strain/Indicator: V-79/8-AZAGUANINE, Metabolic Activation: RAT, HEPATOCYTES) was “inactive; negative” and the mutagenic call (Test System: UDS RAT HEPATOCYTES, Strain/Indicator: THY INCORP, Metabolic Activation: NONE, Method: AUTOMATIC COLONY COUNTER) was “active; positive”.

For O=NN1CCSC1CO (stereo unspecified), the mutagenic call [2] was “inactive; negative”, the mutagenic call (Test System: AMES SALMONELLA TYPHIMURIUM, Strain/Indicator: TA98, Metabolic Activation: NONE, Method: STANDARD PLATE) was “inactive; negative” and the mutagenic call [3] was “inactive; negative”. The mutagenic call (Test System: AMES SALMONELLA TYPHIMURIUM, Strain/Indicator: TA98, Metabolic Activation: RAT, LIVER, S-9, AROCLOR 1254, Method: STANDARD PLATE) was “inactive; negative”, the mutagenic call [4] was “active; positive” and the mutagenic call [5] was “active; positive”. For the same compound, the mutagenic call [6] was “active; positive” and the mutagenic call [7] was “active; positive”.

In the case of OCC1CO1 (stereo unspecified), the mutagenic call (End Point: IN VITRO CHROMOSOMAL ABERRATIONS, Test System: CHL CELLS, Metabolic Activation: NONE) is reported as “active; positive (structural changes)”, the mutagenic call (End Point: IN VITRO CHROMOSOMAL ABERRATIONS, Test System: CHL CELLS, Metabolic Activation: RAT, LIVER, S-9, SODIUM PHENOBARBITAL AND 5,6-BENZOFLAVONE) is reported as “active; positive (structural changes)” and the mutagenic call (Test System: AMES SALMONELLA TYPHIMURIUM, Strain/Indicator: TA97, Metabolic Activation: HAMSTER, LIVER, S-9, AROCLOR 1254, Method: PREINCUBATION) is reported as “active; positive”. The mutagenic call (Test System: AMES SALMONELLA TYPHIMURIUM, Strain/Indicator: TA97, Metabolic Activation: NONE, Method: PREINCUBATION) was “active; positive”, the mutagenic call (Test System: AMES SALMONELLA TYPHIMURIUM, Strain/Indicator: TA97, Metabolic Activation: RAT, LIVER, S-9, AROCLOR 1254, Method: PREINCUBATION) was “active; positive” and the mutagenic call (Test System: AMES SALMONELLA TYPHIMURIUM, Strain/Indicator: TA98, Metabolic Activation: HAMSTER, LIVER, S-9, AROCLOR 1254, Method: PREINCUBATION) was “active; positive”. The mutagenic call [2] was “active; positive”, the mutagenic call [3] was “active; positive” and the mutagenic call (Test System: AMES SALMONELLA TYPHIMURIUM, Strain/Indicator: TA100, Metabolic Activation: HAMSTER, LIVER, S-9, AROCLOR 1254, Method: PREINCUBATION) was “active; positive”. For the same compound, the mutagenic call [4] was “active; positive”, the mutagenic call [5] was “active; positive” and the mutagenic call [6] was “active; positive”. For the same compound, the mutagenic call [7] was “active; positive”, the mutagenic call (Test System: AMES SALMONELLA TYPHIMURIUM, Strain/Indicator: TA100, Metabolic Activation: RAT, LIVER, S-9, PCB, Method: PREINCUBATION) was “active; positive” and the mutagenic call (Test System: AMES SALMONELLA TYPHIMURIUM, Strain/Indicator: TA1535, Metabolic Activation: HAMSTER, LIVER, S-9, AROCLOR 1254, Method: PREINCUBATION) was “active; positive”. The mutagenic call (Test System: AMES SALMONELLA TYPHIMURIUM, Strain/Indicator: TA1535, Metabolic Activation: NONE, Method: PREINCUBATION) was “active; positive”, the mutagenic call (Test System: AMES SALMONELLA TYPHIMURIUM, Strain/Indicator: TA1535, Metabolic Activation: NONE, Method: STANDARD PLATE) was “active; positive” and the mutagenic call (Test System: AMES SALMONELLA TYPHIMURIUM, Strain/Indicator: TA1535, Metabolic Activation: RAT, LIVER, S-9, AROCLOR 1254, Method: PREINCUBATION) was “active; positive”. For the same compound, the mutagenic call (Test System: AMES SALMONELLA TYPHIMURIUM, Strain/Indicator: TA1537, Metabolic Activation: HAMSTER, LIVER, S-9, AROCLOR 1254, Method: PREINCUBATION) was “active; positive”, the mutagenic call (Test System: AMES SALMONELLA TYPHIMURIUM, Strain/Indicator: TA1537, Metabolic Activation: NONE, Method: PREINCUBATION) was “active; positive” and the mutagenic call (Test System: AMES SALMONELLA TYPHIMURIUM, Strain/Indicator: TA1537, Metabolic Activation: RAT, LIVER, S-9, AROCLOR 1254, Method: PREINCUBATION) was “active; positive”. For the same compound, the mutagenic call (Test System: Ames Salmonella typhimurium, Strain/Indicator: TA98, Metabolic Activation: None, Method: Preincubation) was “active; positive”, the mutagenic call (Test System: Ames Salmonella typhimurium, Strain/Indicator: TA98, Metabolic Activation: Rat, Liver, S9, Sodium phenobarbital and 5,6-benzoflavone (10%), Method: Preincubation) was “active; positive” and the mutagenic call (Test System: Ames Salmonella typhimurium, Strain/Indicator: TA100, Metabolic Activation: None, Method: Preincubation) was “active; positive”. For the same compound, the mutagenic call (Test System: Ames Salmonella typhimurium, Strain/Indicator: TA100, Metabolic Activation: Rat, Liver, S9, Sodium phenobarbital and 5,6-benzoflavone (10%), Method: Preincubation) was “active; positive”, the mutagenic call (Test System: Ames Salmonella typhimurium, Strain/Indicator: TA1535, Metabolic Activation: None, Method: Preincubation) was “active; positive” and the mutagenic call (Test System: Ames Salmonella typhimurium, Strain/Indicator: TA1535, Metabolic Activation: Rat, Liver, S9, Sodium phenobarbital and 5,6-benzoflavone (10%), Method: Preincubation) was “active; positive”. For the same compound, the mutagenic call (Test System: Ames Salmonella typhimurium, Strain/Indicator: TA1537, Metabolic Activation: None, Method: Preincubation) was “active; positive”, the mutagenic call (Test System: Ames Salmonella typhimurium, Strain/Indicator: TA1537, Metabolic Activation: Rat, Liver, S9, Sodium phenobarbital and 5,6-benzoflavone (10%), Method: Preincubation) was “inactive; negative” and the mutagenic call (Test System: CHINESE HAMSTER V-79, Strain/Indicator: V-79/6-THIOGUANINE, Metabolic Activation: NONE) was “active; positive”. For the same compound, the mutagenic call (Test System: E. coli, Strain/Indicator: WP2uvrA/pKM101, Metabolic Activation: None, Method: Preincubation) was “active; positive”, the mutagenic call (Test System: E. coli, Strain/Indicator: WP2uvrA/pKM101, Metabolic Activation: Rat, Liver, S9, Sodium phenobarbital and 5,6-benzoflavone (10%), Method: Preincubation) was “active; positive” and the mutagenic call [1] was “active; positive”.

With Nc1cc(Cl)c(Cl)cc1Cl the mutagenic call (Test System: UDS RODENT HEPATOCYTES, Strain/Indicator: THY INCORP (NON-S-PHASE), Metabolic Activation: NONE, Method: AUTORADIOGRAPHY) was “inactive; negative”.

In the case of Nc1cc(N)c(N=Nc2ccc(S(=O)(=O)O)cc2)cc1N=Nc1ccc(-c2ccc(N=Nc3ccc(C(=O)O)c(O)c3)cc2)cc1, the mutagenic call (Test System: AMES SALMONELLA TYPHIMURIUM, Strain/Indicator: TA98, Metabolic Activation: HAMSTER, LIVER, S-9, Method: PREINCUBATION (PRIVAL METHOD)) is reported as “active; positive”.
